How the values were obtained:
[1] = toxicity towards MDBKF5D2 host cells (MTS); settings: bovine, mdbkf5d2 cells, Cytotoxicity (percent toxicity)
[2] = system: Encephalitozoon (Septata) intestinalis; test: growth inhibitory activity against E. intestinalis grown on Vero cells (spore count); assay type: cell-based; settings: 336 h, 1.0 μg/ml, spore number after 2 weeks, read-out: Growth (% of control)
Experimental: Compounds 2, 10 and 15 were tested for i,7 vitro growth inhibitory activity against E. intestinalis, grown on African green monkey kidney cells (Vero cells). Vero cells were grown in 25-cm^2 culture flasks at 37° C. in a humidified 5% carbon dioxide incubator. Cultures were maintained in minimal essential medium (Gibco BRL, Gaithersburg, Md., U.S.A.), supplemented with L-glutamine, Earle's salts, 5% heat-inactivated foetal calf serum (Hyclone Labs, Inc., U.S.A.), fungizone (2 μg/ml, Gibco BRL) and gentamicin (50 μg/ml, Gibco BRL). E. intestinalis spores were collected from the supernatant of an infected Vero cell culture and were used to infect normal cells to produce a fresh spore preparation for growth inhibition tests.
Growth inhibition tests were performed in 24-well culture plates. One ml of Vero cells (5×10^4 cells per ml) was placed in each well and the cells incubated for 12-15 hours at 37° C. The supernatant medium was then removed and replaced with 1 ml of medium containing 1.5-2.0×10^4 E. intestinalis spores per ml along with 1 μl of test compound dissolved in dimethylsulfoxide (DMSO) or DMSO alone for the control treatments without test compound. The plates were incubated at 37° C. and the medium was changed every 72 h along with fresh test compound in DMSO or DMSO alone (controls). After 2 weeks the supernatant was transferred from each well to a microcentiifuge tube, then concentrated by centrifugation with resuspension of the resulting E. intestinalis spore pellet in 300-500 μl fresh medium. The spore number in each sample was then determined by counting in a hemocytometer. The results in Table 11 show the effects of the test compounds on the number of spores and are expressed as a percentage of the spore number in the control treatment without test compound.

Structure (SMILES) | cytotoxicity at 48 h, 0.1 µM [1] [%] | cytotoxicity at 48 h, 1 µM [1] [%] | cytotoxicity at 48 h, 10 µM [1] [%] | cytotoxicity at 48 h, 100 µM [1] [%] | activity at 1 µg/mL [2] [%]
CCC(C)(NC(=O)c1cc(Cl)c(N)c(Cl)c1)C(=O)CCl (stereo not drawn) [Compound 1] | 0 | 0 | 19.9 | 35.7 | 
CCC(C)(NC(=O)c1cc(Cl)c(F)c(Cl)c1)C(=O)CCl (stereo not drawn) [Compound 9] | 6.7 | 0 | 0 | 81.4 | 
CCC(C)(NC(=O)c1cc(Cl)c(C)c(Cl)c1)C(=O)CCl (stereo not drawn) [Compound 10] |  |  |  |  | 20

Reference: patent US6107316A, “Method for treating protozoal infections” (priority 1998, dated 2000)
